Structures can show the parent of a compound that is named as a salt. Active and inactive are the calls of the source. Cut-off read from the data, not from the text of the source, for most assays here: actives have a measured EC50 and inactives only a lower limit.

The target of assay [1] is T1, Corticotropin-releasing factor receptor 2/Corticotropin-releasing factor-binding protein (Homo sapiens, UniProt P24387+Q13324).
T1 sequence (Q13324 whole entry): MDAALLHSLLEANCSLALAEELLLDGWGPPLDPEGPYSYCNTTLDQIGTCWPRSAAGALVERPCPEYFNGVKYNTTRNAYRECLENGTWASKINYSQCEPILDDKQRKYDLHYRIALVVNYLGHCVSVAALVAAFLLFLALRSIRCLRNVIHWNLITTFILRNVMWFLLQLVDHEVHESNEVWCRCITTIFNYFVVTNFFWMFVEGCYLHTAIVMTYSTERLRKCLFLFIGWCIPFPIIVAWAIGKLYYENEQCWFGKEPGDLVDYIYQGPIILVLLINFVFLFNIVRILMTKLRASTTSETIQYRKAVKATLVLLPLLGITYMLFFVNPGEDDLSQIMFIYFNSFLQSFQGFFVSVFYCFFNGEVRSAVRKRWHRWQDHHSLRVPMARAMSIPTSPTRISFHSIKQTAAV
T1 sequence (P24387 whole entry): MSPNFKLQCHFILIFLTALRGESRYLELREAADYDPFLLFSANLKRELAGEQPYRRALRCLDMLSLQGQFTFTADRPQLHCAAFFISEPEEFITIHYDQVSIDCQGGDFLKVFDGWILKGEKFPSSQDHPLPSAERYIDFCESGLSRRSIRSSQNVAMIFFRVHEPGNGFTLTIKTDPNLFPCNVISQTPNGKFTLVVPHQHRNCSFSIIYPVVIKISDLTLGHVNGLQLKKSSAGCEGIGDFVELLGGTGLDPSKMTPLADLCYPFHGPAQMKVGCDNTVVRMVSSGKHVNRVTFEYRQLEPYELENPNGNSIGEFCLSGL
In words: activators of CRF receptor 2 with binding protein – uHTS hits, confirmation (AID 602473). The class given is functional. The settings on record: read-out: EC50_Mean.

Assay [2] addresses T1, Corticotropin-releasing factor receptor 2/Corticotropin-releasing factor-binding protein. In words: Dose Response confirmation of uHTS hits for small molecule antagonists of the CRF-binding protein and CRF-R2 receptor complex. The class given is functional. The following applies: read-out: IC50_Mean.
The next assay has as its system H4. In words: Luminescence Cell-Based Dose Response HTS to Identify Activators of 5'UTR Stem-Loop Driven Prion Protein mRNA Translation in H4 Neuroglioblastoma Cells. [Related pubchem assays: 1829 (Project Summary), 1814 (Primary HTS)]. In kind it is functional. The following applies: Homo sapiens.
The nature of assay [3]: Luminescence Cell-Based Dose Response HTS to Identify Activators of Luciferase Translation or Activity in H4 […] Cells. [Related pubchem assays: 1829 (Project Summary), 1814 (Primary HTS)]. The class given is functional.
Assay [4] concerns the target T2, Replicative DNA helicase DnaB (Mycobacterium tuberculosis, UniProt P9WMR3).
T2 sequence (P9WMR3 whole entry): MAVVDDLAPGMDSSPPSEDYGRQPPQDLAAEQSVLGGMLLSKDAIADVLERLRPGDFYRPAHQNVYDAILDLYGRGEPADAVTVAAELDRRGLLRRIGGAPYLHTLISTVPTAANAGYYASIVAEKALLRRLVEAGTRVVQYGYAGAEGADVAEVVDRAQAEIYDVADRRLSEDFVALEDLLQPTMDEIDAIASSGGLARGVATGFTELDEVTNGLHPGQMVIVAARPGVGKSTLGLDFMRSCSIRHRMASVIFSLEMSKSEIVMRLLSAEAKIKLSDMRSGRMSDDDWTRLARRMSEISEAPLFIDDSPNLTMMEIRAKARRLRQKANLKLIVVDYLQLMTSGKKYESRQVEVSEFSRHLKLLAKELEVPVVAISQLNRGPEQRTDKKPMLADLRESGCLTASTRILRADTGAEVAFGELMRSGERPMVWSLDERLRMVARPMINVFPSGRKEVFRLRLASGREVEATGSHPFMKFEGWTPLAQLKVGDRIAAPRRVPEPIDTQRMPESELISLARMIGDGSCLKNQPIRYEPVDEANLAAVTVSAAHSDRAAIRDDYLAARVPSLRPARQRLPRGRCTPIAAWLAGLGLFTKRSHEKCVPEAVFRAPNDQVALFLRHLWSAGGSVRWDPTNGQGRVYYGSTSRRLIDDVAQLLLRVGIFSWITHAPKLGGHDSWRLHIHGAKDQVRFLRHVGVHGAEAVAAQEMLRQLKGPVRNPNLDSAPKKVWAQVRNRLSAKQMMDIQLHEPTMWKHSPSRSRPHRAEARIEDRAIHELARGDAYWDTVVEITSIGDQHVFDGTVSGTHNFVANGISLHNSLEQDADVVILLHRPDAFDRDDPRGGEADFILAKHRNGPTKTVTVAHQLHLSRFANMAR
In words: DnaB intein splicing inhibitors, dose response, biochemical, cell-free fluorescence (AID 449749). The class given is functional.

In the next assay the target is T3, Protein RecA (Mycobacterium tuberculosis, UniProt P9WHJ3).
T3 sequence (P9WHJ3 whole entry): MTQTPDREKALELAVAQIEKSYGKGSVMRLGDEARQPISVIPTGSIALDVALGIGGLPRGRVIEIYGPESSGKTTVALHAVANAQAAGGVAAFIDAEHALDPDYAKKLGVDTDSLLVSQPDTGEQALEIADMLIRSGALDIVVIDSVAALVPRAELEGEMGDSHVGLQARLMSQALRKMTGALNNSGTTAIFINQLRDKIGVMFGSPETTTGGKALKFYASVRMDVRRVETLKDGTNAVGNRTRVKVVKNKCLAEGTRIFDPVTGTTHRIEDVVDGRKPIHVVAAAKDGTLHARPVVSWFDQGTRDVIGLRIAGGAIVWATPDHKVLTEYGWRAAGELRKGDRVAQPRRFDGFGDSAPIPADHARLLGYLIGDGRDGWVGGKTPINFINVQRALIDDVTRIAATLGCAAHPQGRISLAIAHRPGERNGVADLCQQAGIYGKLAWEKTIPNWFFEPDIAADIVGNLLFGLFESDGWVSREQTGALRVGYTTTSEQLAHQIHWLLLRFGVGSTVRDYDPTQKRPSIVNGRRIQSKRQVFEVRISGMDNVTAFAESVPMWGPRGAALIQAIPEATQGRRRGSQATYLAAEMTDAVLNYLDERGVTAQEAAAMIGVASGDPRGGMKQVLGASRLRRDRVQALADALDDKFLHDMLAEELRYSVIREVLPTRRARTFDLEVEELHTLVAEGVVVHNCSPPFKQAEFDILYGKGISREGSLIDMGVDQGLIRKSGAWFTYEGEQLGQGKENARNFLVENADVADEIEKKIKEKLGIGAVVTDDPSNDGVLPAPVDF
The experiment in a line: Fluorescence Cell-Free Homogeneous Dose Retest to Identify Inhibitors of RecA-Intein Splicing Activity. [Related pubchem assays (depositor defined):AID2097, AID2223, AID489010, AID492950]. In kind it is functional.

Assay [5] is described as follows: Luminescence Cell-Based Dose Confirmation HTS to Identify Activators of 5'UTR Stem-Loop Driven Alpha-Synuclein mRNA Translation in H4 Neuroglioblastoma Cells. [Related pubchem assays: 1829 (Project Summary), 1814 (Primary HTS)]. The class given is functional.
Assay [6] can be described thus: NIH3T3 cell viability loss – ATP luminescence, mouse fibroblasts, counter-screen, dose response (AID 2010).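 Note: cells exposed to compound for about 90 hours before reading.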 The class given is functional, cell-based.
The nature of assay [7]: Trypanosoma cruzi growth suppression in host cells – NIH3T3 host cells, beta-gal luminescence, confirmation (AID 2044).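 Note: intracellular parasites grown in NIH/3T3 mouse fibroblasts as host cells; luminescent beta-galactosidase reporter signal from transgenic T. cruzi replicating inside host cells; inhibitors lower the luminescence signal.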 The class given is functional, cell-based.
Another assay can be described thus: cells. The class given is functional.

Regarding `NC(=O)CS(=O)(=O)c1nc2ccccc2n1Cc1ccccc1F`, the EC50 in [1] is > 53 µM (inactive). The IC50 in assay [2] was > 47.1 µM (inactive).
Regarding `CCOc1c(C)cc(-c2ncccc2O)cc1C`, in assay [1], the EC50 is > 53 µM (inactive). The IC50 in [2] was > 47.1 µM (inactive).
Consider `O=C(c1ccc(N2CCNCC2)cc1)c1cccnc1`, for which the EC50 in assay [1] was > 53 µM (inactive). For the same compound, the IC50 in [2] is > 47.1 µM (inactive).
The matching figures for `O=C(Nc1cc(C(F)(F)F)ccc1-n1cncn1)c1ccc(Cl)cc1`: > 53 µM (inactive) and > 47.1 µM (inactive).
Take `CCOC(=O)c1nnc(-c2ccccc2)nc1N1CC(C)OC(C)C1` (centres undefined): in assay [1], the EC50 is > 53 µM (inactive). For the same compound, the IC50 in assay [2] was > 47.1 µM (inactive).
As to `COc1ccc(CNC(=O)CCc2nc3cc(S(=O)(=O)N(C)C)ccc3n2C)cc1OC`, the EC50 in assay [1] is > 53 µM (inactive). In [2], the IC50 was > 47.1 µM (inactive).
For `COc1ccc(Oc2nccc(-c3ccccc3)c2C#N)cc1`, the EC50 in assay [1] was > 53 µM (inactive); in the assay on H4, 11.8 µM (active); in [3], 9.77 µM (active). Further, in assay [2], the IC50 was 30.7 µM (active).
For the compound `COc1ccc(CNC(=O)C(c2ccc(C)o2)N(C(=O)c2snc(C(N)=O)c2N)c2ccccc2OC)cc1` (centres undefined), in assay [4], the AC50 was > 380 µM (inactive). The EC50 on Protein RecA was > 380 µM (inactive).
With `Cc1cc(N2CCN(C)CC2)nc2ccc(NC(=O)CCC(=O)NCCCOC(C)C)cc12`, the EC50 in assay [1] is > 53 µM (inactive). Further, the IC50 in [2] was > 47.1 µM (inactive).
With `c1ccc2c(COn3nnc4ccccc43)cccc2c1`, the EC50 was > 120 µM (not active) in the assay with H4, 28.7 µM (active) in assay [5] and > 120 µM (not active) in assay [3].
As to `O=C(Oc1ccccc1C(=O)Nc1ccccc1)c1ccccc1Br`, the AC50 in assay [4] is 7.25 µM (active). Moreover, at Protein RecA, the EC50 was 8.13 µM (active).
On to `CCN1CCN(C(=O)c2ccc3c(=O)n(CCc4ccccc4)c(=O)[nH]c3c2)CC1`, for which the EC50 in the assay with H4 was 10.2 µM (active); in [5], 107 µM (active); in assay [3], 63.3 µM (active).
For the compound `CCCc1n[nH]c2c1C(CCC)C(C#N)=C(N)O2` (centres undefined), the AC50 in assay [4] is 20.5 µM (active). Further, the EC50 on Protein RecA is 7.46 µM (active).
With `Cc1cc(NC(=O)Cc2ccccc2)ccc1NC(=O)c1cccs1`, in [1], the EC50 was > 53 µM (inactive). Also, the IC50 in assay [2] was > 47.1 µM (inactive).
The matching figures for `CC(Nc1ccc(Br)cc1)C(=O)Nc1cccc(S(=O)(=O)N2CCOCC2)c1` (centres undefined): > 53 µM (inactive) and > 47.1 µM (inactive).
`COc1ccc(NC(=O)CN2CCCC2c2cccs2)cc1S(=O)(=O)N1CCCCC1` (centres undefined): the EC50 in assay [1] was > 53 µM (inactive). Moreover, the IC50 in [2] was > 47.1 µM (inactive).
With `COc1ccccc1NS(=O)(=O)c1ccc(N/N=C/c2c(C)nn(-c3ccccc3)c2N2CCCC2)c([N+](=O)[O-])c1`, the values for the EC50 in assay [1], in assay [6] and in assay [7] were > 53 µM (inactive), > 60 µM (not active) and 0.501 µM (active), respectively. The IC50 in [2] is > 47.1 µM (inactive).
As for `COc1cc(/C=N\NC(=O)c2ccccc2F)ccc1Oc1ccc([N+](=O)[O-])cn1`, in assay [4], the AC50 was 133 µM (active). The EC50 on Protein RecA was > 380 µM (inactive).
Regarding `Cc1nnc(N/N=C/c2cccc(OCc3ccc(Cl)c(Cl)c3)c2)n1N`, in assay [4], the AC50 is 8.86 µM (active). In “cells”, the IC50 is 5.42 µM (active). Further, the EC50 at Protein RecA was 4.81 µM (active).
On to `C/C(=N\NC(=O)CC#N)c1cc2ccccc2oc1=O`, for which, in assay [4], the AC50 was 3.44 µM (active). In addition, at Protein RecA, the EC50 is 2.97 µM (active).
As for `O=C(O)C1=CCCNC1` [GUVACINE HYDROCHLORIDE], the EC50 in assay [1] was > 53 µM (inactive). In addition, the IC50 in assay [2] was > 47.1 µM (inactive).

(Values after ChEMBL document CHEMBL1201862, “PubChem BioAssay data set” (2004).)
